Data set [1] in a line: Antiviral activity against Respiratory syncytial virus A infected in human Hep2 cells assessed as reduction of virus-induced cytopathic effect after 6 days by CCK-8 assay. Type of data set: functional, cell-based, Respiratory syncytial virus type A. The settings on record: HEp-2, 144 h.
Data set [2] is described as follows: Cytotoxicity against human Hep2 cells assessed as cell viability after 6 days by CCK-8 assay.
Data set [3] in a line: Solubility of the compound in phosphate buffer at pH 6.5 after overnight incubation by LYSA method.
Data set [4] is described as follows: Clearance in human liver microsomes at 1 uM.
The nature of data set [5]: Clearance in mouse liver microsomes at 1 uM.
Data set [6] can be described thus: in vitro. To be noted: PAMPA.
Description: Permeability of the compound at 150 uM by PAMPA
The target of data set [7] is Cytochrome P450 3A4 (Homo sapiens, UniProt P08684). Description: Inhibition of CYP3A4 in human liver microsomes by LC-MS/MS analysis.
Data set [8] deals with Cytochrome P450 2C9 (Homo sapiens, UniProt P11712). Nature of the data set: Inhibition of CYP2C9 in human liver microsomes by LC-MS/MS analysis.
In data set [9] the target is Cytochrome P450 2D6 (Homo sapiens, UniProt P10635). Description: Inhibition of CYP2D6 in human liver microsomes by LC-MS/MS analysis.

Structures are written as SMILES. ≈ marks a conversion by molar mass, not a printed value. Some results are limits rather than exact numbers.

Chain of Cytochrome P450 2C9 (P11712 whole entry): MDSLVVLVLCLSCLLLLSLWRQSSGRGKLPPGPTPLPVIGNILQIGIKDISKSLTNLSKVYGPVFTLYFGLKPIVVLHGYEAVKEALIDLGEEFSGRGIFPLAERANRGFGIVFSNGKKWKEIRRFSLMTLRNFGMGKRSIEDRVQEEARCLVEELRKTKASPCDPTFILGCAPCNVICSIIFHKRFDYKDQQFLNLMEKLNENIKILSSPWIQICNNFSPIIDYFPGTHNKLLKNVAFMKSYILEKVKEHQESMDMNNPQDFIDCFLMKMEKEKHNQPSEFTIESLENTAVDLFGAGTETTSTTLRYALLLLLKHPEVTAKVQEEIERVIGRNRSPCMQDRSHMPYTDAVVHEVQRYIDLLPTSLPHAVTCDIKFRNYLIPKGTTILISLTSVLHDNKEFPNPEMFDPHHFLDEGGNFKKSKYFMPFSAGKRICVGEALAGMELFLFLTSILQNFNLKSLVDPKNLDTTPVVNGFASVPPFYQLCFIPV
Chain of Cytochrome P450 3A4 (P08684 whole entry): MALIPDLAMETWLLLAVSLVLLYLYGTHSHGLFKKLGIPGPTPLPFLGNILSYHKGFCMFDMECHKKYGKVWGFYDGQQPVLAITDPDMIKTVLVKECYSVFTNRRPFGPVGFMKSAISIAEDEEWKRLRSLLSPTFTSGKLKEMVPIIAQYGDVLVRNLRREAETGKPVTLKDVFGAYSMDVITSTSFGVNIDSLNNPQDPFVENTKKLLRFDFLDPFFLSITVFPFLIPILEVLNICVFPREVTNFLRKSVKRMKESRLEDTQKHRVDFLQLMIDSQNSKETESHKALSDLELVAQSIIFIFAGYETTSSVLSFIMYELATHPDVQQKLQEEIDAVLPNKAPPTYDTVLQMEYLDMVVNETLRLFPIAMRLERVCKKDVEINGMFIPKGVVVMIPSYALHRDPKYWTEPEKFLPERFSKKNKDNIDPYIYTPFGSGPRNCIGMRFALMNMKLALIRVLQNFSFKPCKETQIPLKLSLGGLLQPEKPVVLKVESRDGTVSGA
Chain of Cytochrome P450 2D6 (P10635 whole entry): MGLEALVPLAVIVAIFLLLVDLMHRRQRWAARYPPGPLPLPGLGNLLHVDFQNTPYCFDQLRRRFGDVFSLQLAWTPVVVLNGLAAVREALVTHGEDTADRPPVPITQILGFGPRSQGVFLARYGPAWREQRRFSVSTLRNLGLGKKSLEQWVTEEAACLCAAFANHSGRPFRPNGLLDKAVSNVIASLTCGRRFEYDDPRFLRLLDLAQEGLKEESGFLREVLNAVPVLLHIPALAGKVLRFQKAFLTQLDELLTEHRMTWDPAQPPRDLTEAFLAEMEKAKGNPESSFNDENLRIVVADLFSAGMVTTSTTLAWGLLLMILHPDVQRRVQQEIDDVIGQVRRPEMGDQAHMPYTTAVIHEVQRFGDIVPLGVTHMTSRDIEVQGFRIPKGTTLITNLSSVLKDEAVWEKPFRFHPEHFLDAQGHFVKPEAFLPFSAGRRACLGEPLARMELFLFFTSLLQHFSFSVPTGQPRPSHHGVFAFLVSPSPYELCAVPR

Turning to `O=c1n(Cc2nc3ccccc3n2CCCCO)c2cnccc2n1C1CC1`, in [1], the EC50 amounted to 28 nM.
Turning to `CS(=O)(=O)CCNC(=O)c1c(Cn2c(=O)n(C3CC3)c3ccncc32)nc2cc(Cl)ccn12`, the EC50 in data set [1] is 82 nM. Further, the cytotoxic concentration (CC50) at 144 h in data set [2] (Hep2 cells) was more than 100000 nM.
For `Cc1ccc2nc(Cn3c(=O)n(C4CC4)c4ccncc43)c(CCCCO)n2c1`, in that order: 217 nM and more than 100000 nM.
The matching figures for `N#Cc1c(Cn2c(=O)n(C3CC3)c3ccncc32)nc2cc(Cl)ccn12`: 86 nM and 22500 nM.
For the molecule `NC(=O)CCc1c(Cn2c(=O)n(C3CC3)c3ccncc32)nc2cc(Cl)ccn12`, the EC50 in [1] turned out to be 5 nM. Besides, the cytotoxic concentration (CC50) at 144 h in data set [2] (Hep2 cells) was more than 100000 nM. Moreover, the solubility in data set [3] came to 87 µg/mL (≈ 212 µM). Also, the CLhep predicted at 1 µM in data set [4] is 13.5 mL/min/kg; in data set [5], 59 mL/min/kg. This molecule had a Papp at 150 µM in data set [6] of 2.5 ×10⁻⁶ cm/s.
As for `O=c1n(Cc2nc3ccc(C(F)(F)F)cn3c2CCCCO)c2cnccc2n1C1CC1`, in data set [1], the EC50 is 2890 nM. Also, in data set [2] (Hep2 cells), the CC50 at 144 h was more than 100000 nM.
Consider `O=C(O)CCc1c(Cn2c(=O)n(C3CC3)c3ccncc32)nc2cc(Cl)ccn12`, for which, in data set [1], the EC50 came out at 53 nM. Further, in data set [2] (hep-2), the CC50 at 144 h was more than 100000 nM. Further, in data set [3], the solubility was 541 µg/mL (≈ 1310 µM). Also, the CLhep predicted at 1 µM in [5] is 9.1 mL/min/kg. The IC50 in data set [7], in data set [8] and in data set [9] was more than 50000 nM in each case. Besides, the Papp at 150 µM in data set [6] is 0.3 ×10⁻⁶ cm/s.
In the case of `O=C(CCc1c(Cn2c(=O)n(C3CC3)c3ccncc32)nc2cc(Cl)ccn12)NCCO`, in [1], the half-maximal effective concentration (EC50) amounted to 10 nM. For the same molecule, the cytotoxic concentration (CC50) at 144 h in data set [2] (Hep2 cells) was more than 100000 nM. This molecule also gave a solubility in data set [3] of 107 µg/mL (≈ 235 µM). Also, the CLhep predicted at 1 µM was 2.9 mL/min/kg in data set [4] and 47 mL/min/kg in [5]. Further, the apparent permeability (Papp) at 150 µM in data set [6] turned out to be 0.96 ×10⁻⁶ cm/s.
For the molecule `Cc1ccn2c(CCCCO)c(Cn3c(=O)n(C4CC4)c4ccncc43)nc2c1`, the EC50 in [1] worked out at 6 nM. Further, the cytotoxic concentration (CC50) at 144 h in [2] (Hep2 cells) is more than 100000 nM.
As for `O=c1n(Cc2nc3cc(Cl)ccn3c2NCCN2CCOCC2)c2cnccc2n1C1CC1`, the EC50 in data set [1] was found to be 83 nM. Further, in data set [2] (Hep2 cells), the CC50 at 144 h was more than 100000 nM.
The matching figures for `O=c1n(Cc2nc3cc(C(F)(F)F)ccn3c2CCCCO)c2cnccc2n1C1CC1`: 217 nM and more than 100000 nM.
With `O=c1n(Cc2nc3cc(Cl)ccn3c2NC2CCCCC2)c2cnccc2n1C1CC1`, the EC50 in [1] turned out to be 72 nM. Further, the CC50 at 144 h in data set [2] (Hep2 cells) was more than 100000 nM.
With `O=c1n(Cc2nc3ccc(F)cn3c2CCCCO)c2cnccc2n1C1CC1`, the EC50 in [1] was 96 nM. In data set [2] (Hep2 cells), the CC50 at 144 h is more than 100000 nM.
For `O=c1n(Cc2nc3cc(Cl)ccn3c2CO)c2cnccc2n1C1CC1`, in that order: 1930 nM and more than 100000 nM.
For `O=C(NCCO)c1c(Cn2c(=O)n(C3CC3)c3ccncc32)nc2cc(Cl)ccn12`, in that order: 2230 nM and more than 100000 nM.
As to `O=c1n(Cc2nc3cc(F)ccn3c2CCCCO)c2cnccc2n1C1CC1`, in data set [1], the EC50 is 23 nM. Moreover, the CC50 at 144 h in data set [2] (Hep2 cells) is more than 100000 nM.
Consider `O=c1n(Cc2nc3ccc(Cl)cn3c2CCCCO)c2cnccc2n1C1CC1`, for which the EC50 in data set [1] was determined as 422 nM. Besides, the CC50 at 144 h in [2] (Hep2 cells) is more than 100000 nM.
`O=c1n(Cc2cn3ccc(Cl)cc3n2)c2cnccc2n1C1CC1`: the EC50 in data set [1] turned out to be 3060 nM. In data set [2] (Hep2 cells), the CC50 at 144 h is 22300 nM.
For the molecule `O=c1n(Cc2nc3cc(Cl)ccn3c2CCCCO)c2cnccc2n1C1CC1`, the EC50 in [1] was 7 nM. In data set [2] (Hep2 cells), the CC50 at 144 h was more than 100000 nM. The same molecule gave a solubility in data set [3] of 20 µg/mL (≈ 48.6 µM). Besides, the CLhep predicted at 1 µM in data set [4] is 11.5 mL/min/kg; in data set [5], 80 mL/min/kg. Moreover, the Papp at 150 µM in data set [6] is 3.1 ×10⁻⁶ cm/s.
`O=C(O)/C=C/c1c(Cn2c(=O)n(C3CC3)c3ccncc32)nc2cc(Cl)ccn12`: the EC50 in data set [1] was determined as 207 nM. In addition, the CC50 at 144 h in [2] (Hep2 cells) is more than 100000 nM.
For `O=c1n(Cc2nc3cc(Cl)ccn3c2CNCCO)c2cnccc2n1C1CC1`, in that order: 683 nM and more than 100000 nM.
`CS(=O)(=O)c1ccc(-c2c(Cn3c(=O)n(C4CC4)c4ccncc43)nc3cc(Cl)ccn23)cc1`: the EC50 in data set [1] came out at 89 nM. Moreover, the CC50 at 144 h in data set [2] (Hep2 cells) was more than 100000 nM.
`CS(=O)(=O)NC(=O)CCc1c(Cn2c(=O)n(C3CC3)c3ccncc32)nc2cc(Cl)ccn12`: the 50% effective concentration (EC50) in [1] stood at 46 nM. The CC50 at 144 h in data set [2] (Hep2 cells) is more than 100000 nM.
For the molecule `CCS(=O)(=O)CCc1c(Cn2c(=O)n(C3CC3)c3ccncc32)nc2cc(Cl)ccn12`, the EC50 in data set [1] was determined as 3 nM. The 50% cytotoxic concentration (CC50) at 144 h in [2] (hep-2) was more than 100000 nM. The molecule also displayed a solubility in [3] of 46 µg/mL (≈ 100 µM). In addition, the CLhep predicted at 1 µM in [4] is 4.6 mL/min/kg; in [5] it was 62 mL/min/kg. The IC50 in data set [7], in [8] and in data set [9] was more than 50000 nM each time. Moreover, the Papp at 150 µM in data set [6] was 2.6 ×10⁻⁶ cm/s.
On to `O=c1n(Cc2nc3ccccn3c2CCCCO)c2cnccc2n1C1CC1`, for which the EC50 in [1] came out at 17 nM. Also, the 50% cytotoxic concentration (CC50) at 144 h in [2] (Hep2 cells) is more than 100000 nM.
In the case of `CCc1ccn2c(CCCCO)c(Cn3c(=O)n(C4CC4)c4ccncc43)nc2c1`, in [1], the EC50 was 7 nM. The half-maximal cytotoxic concentration (CC50) at 144 h in [2] (Hep2 cells) was more than 100000 nM.
For `CCCCNc1c(Cn2c(=O)n(C3CC3)c3ccncc32)nc2cc(Cl)ccn12`, in that order: 41 nM and more than 100000 nM.
Take `CS(=O)(=O)CCc1c(Cn2c(=O)n(C3CC3)c3ccncc32)nc2cc(Cl)ccn12`: the EC50 in data set [1] came to 6 nM. Besides, the CC50 at 144 h in [2] (Hep2 cells) was more than 100000 nM. This molecule also had a solubility in data set [3] of 59 µg/mL (≈ 132 µM). The CLhep predicted at 1 µM was 2.5 mL/min/kg in data set [4] and 35 mL/min/kg in data set [5]. The IC50 in [7], in [8] and in data set [9] was more than 50000 nM throughout. The same molecule had an apparent permeability (Papp) at 150 µM in data set [6] of 3.6 ×10⁻⁶ cm/s.
For `O=C(O)c1c(Cn2c(=O)n(C3CC3)c3ccncc32)nc2cc(Cl)ccn12`, in data set [1], the EC50 came out at 25500 nM. The CC50 at 144 h in data set [2] (Hep2 cells) is more than 100000 nM.

The values above are taken from ChEMBL document CHEMBL3425470, “Discovery of imidazopyridine derivatives as highly potent respiratory syncytial virus fusion inhibitors” (ACS Med Chem Lett, 2015).
